In US20250295609A1, “COMPOUND HAVING ANTI-ANDROGEN RECEPTOR ACTIVITY, AND USE THEREOF” (NANJING MINOVA PHARMACEUTICAL CO., LTD., priority 2022, published 2025):

Test system: alopecia mouse model
Test: Hair growth promotion test in mice with alopecia (testosterone propionate model)
Assay type: in vivo, C57BL/6 mice
Method: The compounds of the present disclosure were tested for their hair growth-promoting effects on an alopecia mouse model.
C57BL/6 mice (purchased from SPF (Beijing) Biotechnology Co., Ltd., production license No.: SCXK (Beijing) 2019-0010), test compounds (prepared by the method of the present disclosure), rosin (Shanghai YuanYe Bio-Technology Co., Ltd., lot No. Y18M10C83144), liquid paraffin (Shanghai YuanYe Bio-Technology Co., Ltd., lot No.: Z22S11Y125555), chloral hydrate (Sinopharm Chemical Reagent Co., Ltd., lot No.: 20190823, a 2% chloral hydrate solution was prepared by using a 0.9% sodium chloride solution before use), testosterone propionate (Aladdin Reagent (Shanghai) Co., Ltd., lot No.: T101368, a 0.5% testosterone propionate solution was prepared by using an a soybean oil for injection before use), soybean oil for injection (Liaoning Shinsun Pharmaceutical Co., Ltd., lot No.: NMPA Approval No. H21024303), paraformaldehyde (Xilong Scientific Co., Ltd., lot No.: 1705022), a 0.9% sodium chloride solution (Jiangsu Huai'an Shuanghe Pharmaceutical Co., Ltd., lot No.: 210322-3C), an electronic balance (Beijing Sartorius Scientific Instruments Co., Ltd., model: BS224 S; GZX-9140MBE), and a digital display electric heating constant temperature air blast drying oven (Shanghai Boxun Medical Biological Instrument Corp.).
8-week-old male C57BL/6 mice were selected and injected with 2% chloral hydrate (400 mg/kg) for anesthesia. Equal amounts of rosin and paraffin were weighed out, heated, and mixed well. The mixture was applied on the front back of the mice in an area of about 2 cm×2.5 cm. After the mixture was cooled to be hard, the solidified hair was torn off by tweezers gently.
Qualified C57BL/6 mice (3 mice per group) were randomly assigned to a blank group, a model group, a positive control drug group (7.5% clascoterone group), and test groups (including 0.3% compound 8 group and 0.3% compound 7 group). Mice in the blank group were coated with 0.1 mL of normal saline in the depilated area every morning (1 time a day for 17 consecutive days); mice in the model group were coated with 0.1 mL of 0.5% testosterone propionate solution in the depilated area every morning (1 time a day, starting on the first day, for 17 consecutive days), and with 0.5 mL of the control solvent in the depilated area every afternoon (1 time a day, starting on the second day, for 16 consecutive days); mice in the positive control drug group were coated with 0.1 mL of 0.5% testosterone propionate solution in the depilated area every morning (1 time a day, starting on the first day, for 17 consecutive days), and with 0.5 mL of 7.5% clascoterone solution in the depilated area every afternoon (1 time a day, starting on the second day, for 16 consecutive days); and mice in the test groups were coated with 0.1 mL of 0.5% testosterone propionate solution in the depilated area every morning (1 time a day, starting on the first day, for 17 consecutive days), and with 0.5 mL of 0.3% test compound solution in the depilated area every afternoon (1 time a day, starting on the second day, for 16 consecutive days). The formula of the test compound solution was 0.3% test compound, 40% DMSO, 30% ethanol, and the balance of water; the formula of the control solvent was 40% DMSO, 30% ethanol, and the balance of water; the formula of the positive control drug group was 7.5% clascoterone, 40% DMSO, 30% ethanol, and the balance of water. The hair regrowth in the depilated area of the mice in each group was observed and photographed 16 days after the start of topical administration of the test compound solution.
On day 18 of the test, 5 new hairs were pulled out from the back depilated area of each mouse in each group, the lengths of the hairs were measured using a vernier caliper, and the lengths of the hairs of the mice in each group were counted. The skin of the depilated area of the mice in each group was cut out, and hematoxylin-eosin staining (HE staining) was performed. […]

With CCC(=O)O[C@]1(C(=O)CO)CC[C@H]2[C@@H]3CCC4=CC(=O)CC[C@]4(C)[C@H]3CC[C@@]21C [clascoterone, reference compound] the “hair growth and number of hair follicles compared to the model group (in words)” value (alopecia mouse model, FIG. 3) was “significantly grown hairs and the number of hair follicles was significantly increased”, the “Number of hair follicles (X ± SD)” value (day 18, per field (×100), HE staining, topical once daily for 16 days) was 53.533 ± 24.929 and the “Hair length (X ± SD)” value (day 18, topical once daily for 16 days, testosterone propionate alopecia mice) was 5.649 ± 0.059 mm.
